Assay results taken from ChEMBL document CHEMBL4828722, “The synthesis and bioactivity of pyrrolo[2,3-d]pyrimidine derivatives as tyrosine kinase inhibitors for NSCLC cells with EGFR mutations” (Eur J Med Chem, 2021).
Calls of active or inactive are those of the source. No cut-off for these calls is given here.

What was measured:
[1] = molecular target: Epidermal growth factor receptor (Homo sapiens, UniProt P00533, DELE746); assay: Inhibition of […] EGFR Del E746/A750 mutant (unknown origin) pretreated with substrate for 10 mins followed by ATP addition measured after 60 mins by mobility shift assay
[2] = tested on: Epidermal growth factor receptor (Homo sapiens), P00533 [UNDEFINED MUTATION]; assay: Inhibition of […] EGFR Del E746/A750 mutant (unknown origin) at 2 nM pretreated with substrate for 10 mins followed by ATP addition measured after 60 mins by mobility shift assay relative to control
NCI-H1975 [3] = assay: Induction of cell cycle arrest in human NCI-H1975 cells harboring EGFR L858R/T790M mutant assessed as accumulation of cells in S phase at 1 uM measured after 18 hrs by PI/RNaseA staining based flow cytometry analysis (Rvb= 39.78%); type: functional
[4] = tested on: Epidermal growth factor receptor (Homo sapiens), P00533 [L858R]; assay: Inhibition of […] EGFR L858R mutant (unknown origin) at 2 nM pretreated with substrate for 10 mins followed by ATP addition measured after 60 mins by mobility shift assay relative to control
[5] = molecular target: T1, Epidermal growth factor receptor (Homo sapiens, UniProt P00533); assay: Inhibition of wild type EGFR phosphorylation at Tyr1068 residue in human HBE cells up to 5 uM incubated for 2 hrs by immunoblotting analysis; type: cell-based; settings: dose microM <=5, time 2.0 hrs
NCI-H1975 [6] = assay: Cytotoxicity against human NCI-H1975 cells harboring EGFR L858R/T790M mutant assessed as reduction in cell viability measured after 48 hrs by CCK8 assay; type: functional, cell-based; settings: NCI-H1975, 48 h
[7] = tested on: Epidermal growth factor receptor (Homo sapiens), P00533 [L858R,T790M,C797S]; assay: Inhibition of […] EGFR L858R/T790M/C797S mutant (unknown origin) at 2 nM pretreated with substrate for 10 mins followed by ATP addition measured after 60 mins by mobility shift assay relative to control
[8] = molecular target: Epidermal growth factor receptor (Homo sapiens, UniProt P00533, C797S/L858R/T790M); assay: Inhibition of […] EGFR L858R/T790M/C797S mutant (unknown origin) pretreated with substrate for 10 mins followed by ATP addition measured after 60 mins by mobility shift assay
[9] = tested on: Epidermal growth factor receptor (Homo sapiens), P00533 [C797S]; assay: Inhibition of […] EGFR C797S mutant (unknown origin) at 2 nM pretreated with substrate for 10 mins followed by ATP addition measured after 60 mins by mobility shift assay relative to control
[10] = tested on: Epidermal growth factor receptor (Homo sapiens), P00533 [T790M]; assay: Inhibition of […] EGFR T790M mutant (unknown origin) at 2 nM pretreated with substrate for 10 mins followed by ATP addition measured after 60 mins by mobility shift assay relative to control
NCI-H1975 [11] = assay: Induction of cell cycle arrest in human NCI-H1975 cells harboring EGFR L858R/T790M mutant assessed as accumulation of cells in G0/G1 phase at 1 uM measured after 18 hrs by PI/RNaseA staining based flow cytometry analysis (Rvb= 42.69%); type: functional
[12] = molecular target: Epidermal growth factor receptor (Homo sapiens, UniProt P00533, L858R); assay: Inhibition of […] EGFR L858R mutant (unknown origin) pretreated with substrate for 10 mins followed by ATP addition measured after 60 mins by mobility shift assay
[13] = Cytotoxicity against human HBE cells assessed as reduction in cell viability measured after 48 hrs by CCK8 assay; type: cell-based
HCC827 [14] = assay: Induction of apoptosis in human HCC827 cells harboring EGFR del E746-A750 mutant assessed as dead cells at 0.5 uM measured after 18 hrs by Annexin V-FITC/PI staining based flow cytometry analysis (Rvb= […]); type: functional
[15] = molecular target: T1, Epidermal growth factor receptor; assay: Inhibition of wild type EGFR (unknown origin) pretreated with substrate for 10 mins followed by ATP addition measured after 60 mins by mobility shift assay
[16] = molecular target: T1, Epidermal growth factor receptor; assay: Inhibition of […] EGFR phosphorylation at Tyr992 residue in human HCC827 cells at 0.1 to 5 uM incubated for 2 hrs by immunoblotting analysis; type: cell-based; settings: dose 0.1-5 µM
[17] = molecular target: Epidermal growth factor receptor (Homo sapiens, UniProt P00533, L858R/T790M); assay: Inhibition of […] EGFR L858R/T790M mutant (unknown origin) pretreated with substrate for 10 mins followed by ATP addition measured after 60 mins by mobility shift assay
[18] = tested on: Epidermal growth factor receptor (Homo sapiens), P00533 [L858R,T790M]; assay: Inhibition of […] EGFR L858R/T790M mutant (unknown origin) at 2 nM pretreated with substrate for 10 mins followed by ATP addition measured after 60 mins by mobility shift assay relative to control
[19] = molecular target: T1, Epidermal growth factor receptor; assay: Inhibition of […] EGFR phosphorylation at Tyr1068 residue in human HCC827 cells at 0.1 to 5 uM incubated for 2 hrs by immunoblotting analysis; type: cell-based; settings: dose 0.1-5 µM
[20] = molecular target: Epidermal growth factor receptor (Homo sapiens, UniProt P00533, C797S); assay: Inhibition of […] EGFR C797S mutant (unknown origin) pretreated with substrate for 10 mins followed by ATP addition measured after 60 mins by mobility shift assay
[21] = molecular target: T1, Epidermal growth factor receptor; assay: Inhibition of […] EGFR phosphorylation at Tyr992 residue in human NCI-H1975 cells at 0.1 to 5 uM incubated for 2 hrs by immunoblotting analysis; type: cell-based; settings: dose 0.1-5 µM
[22] = molecular target: T1, Epidermal growth factor receptor; assay: Inhibition of […] EGFR phosphorylation at Tyr1068 residue in human NCI-H1975 cells at 0.1 to 5 uM incubated for 2 hrs by immunoblotting analysis; type: cell-based; settings: dose 0.1-5 µM
[23] = molecular target: T1, Epidermal growth factor receptor; assay: Inhibition of wild type EGFR (unknown origin) at 80 nM pretreated with substrate for 10 mins followed by ATP addition measured after 60 mins by mobility shift assay relative to control
[24] = molecular target: T1, Epidermal growth factor receptor; assay: Inhibition of wild type EGFR phosphorylation at Tyr992 residue in human HBE cells up to 5 uM incubated for 2 hrs by immunoblotting analysis; type: cell-based; settings: dose microM <=5, time 2.0 hrs
[25] = molecular target: Mitogen-activated protein kinase; ERK1/ERK2 (Homo sapiens) (UniProt P27361+P28482); assay: Inhibition of ERK1/2 phosphorylation at Thr202/Tyr204 residue in human HBE cells at 5 uM incubated for 2 hrs by immunoblotting analysis; type: cell-based
[26] = molecular target: Epidermal growth factor receptor (Homo sapiens, UniProt P00533, T790M); assay: Inhibition of […] EGFR T790M mutant (unknown origin) pretreated with substrate for 10 mins followed by ATP addition measured after 60 mins by mobility shift assay
[27] = Selectivity index, ratio of IC50 for cytotoxicity against human HBE cells to IC50 for cytotoxicity against human HCC827 cells harboring EGFR del E746-A750 mutant assessed as reduction in cell viability measured after 48 hrs by CCK8 assay
[28] = Potency index, ratio of avitinib IC50 to test compound IC50 for cytotoxicity against human BEAS-2B cells assessed as reduction in cell viability measured after 48 hrs by CCK8 assay; type: cell-based; settings: read-out: Ratio IC50
HCC827 [29] = assay: Potency index, ratio of avitinib IC50 to test compound IC50 for cytotoxicity against human HCC827 cells harboring EGFR del E746-A750 mutant assessed as reduction in cell viability measured after 48 hrs by CCK8 assay; type: functional

T1 sequence (P00533 whole entry): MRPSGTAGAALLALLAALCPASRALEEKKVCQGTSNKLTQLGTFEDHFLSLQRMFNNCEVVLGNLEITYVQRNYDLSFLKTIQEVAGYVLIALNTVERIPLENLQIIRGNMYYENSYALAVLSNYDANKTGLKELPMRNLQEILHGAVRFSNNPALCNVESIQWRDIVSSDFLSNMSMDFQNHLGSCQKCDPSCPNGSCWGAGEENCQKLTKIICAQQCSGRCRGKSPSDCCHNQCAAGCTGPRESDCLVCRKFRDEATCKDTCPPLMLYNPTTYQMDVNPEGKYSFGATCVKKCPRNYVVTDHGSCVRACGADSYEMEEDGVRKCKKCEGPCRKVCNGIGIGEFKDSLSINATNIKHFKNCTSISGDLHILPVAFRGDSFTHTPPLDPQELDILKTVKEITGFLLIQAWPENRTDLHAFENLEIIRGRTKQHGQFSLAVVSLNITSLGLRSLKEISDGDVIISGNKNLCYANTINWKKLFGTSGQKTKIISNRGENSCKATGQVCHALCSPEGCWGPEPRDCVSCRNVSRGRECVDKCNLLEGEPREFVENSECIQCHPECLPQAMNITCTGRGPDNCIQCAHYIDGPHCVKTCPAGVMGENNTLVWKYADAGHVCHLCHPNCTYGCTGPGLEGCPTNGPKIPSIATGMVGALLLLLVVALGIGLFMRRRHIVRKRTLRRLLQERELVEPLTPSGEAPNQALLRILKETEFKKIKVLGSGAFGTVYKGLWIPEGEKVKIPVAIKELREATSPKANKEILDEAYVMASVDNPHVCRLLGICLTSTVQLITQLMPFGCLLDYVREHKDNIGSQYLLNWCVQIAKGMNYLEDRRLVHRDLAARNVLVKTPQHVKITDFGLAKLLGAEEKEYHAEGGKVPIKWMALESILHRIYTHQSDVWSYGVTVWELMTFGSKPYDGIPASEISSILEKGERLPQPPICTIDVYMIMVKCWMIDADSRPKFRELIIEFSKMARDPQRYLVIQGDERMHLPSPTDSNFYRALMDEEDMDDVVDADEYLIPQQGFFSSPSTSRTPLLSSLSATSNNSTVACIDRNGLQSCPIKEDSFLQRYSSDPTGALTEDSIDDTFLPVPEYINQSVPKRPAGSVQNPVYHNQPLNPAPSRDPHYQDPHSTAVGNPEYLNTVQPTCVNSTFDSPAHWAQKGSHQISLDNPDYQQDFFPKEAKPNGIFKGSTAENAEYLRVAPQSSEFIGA
Mitogen-activated protein kinase; ERK1/ERK2 (Homo sapiens), sequence (P27361 whole entry, looked up): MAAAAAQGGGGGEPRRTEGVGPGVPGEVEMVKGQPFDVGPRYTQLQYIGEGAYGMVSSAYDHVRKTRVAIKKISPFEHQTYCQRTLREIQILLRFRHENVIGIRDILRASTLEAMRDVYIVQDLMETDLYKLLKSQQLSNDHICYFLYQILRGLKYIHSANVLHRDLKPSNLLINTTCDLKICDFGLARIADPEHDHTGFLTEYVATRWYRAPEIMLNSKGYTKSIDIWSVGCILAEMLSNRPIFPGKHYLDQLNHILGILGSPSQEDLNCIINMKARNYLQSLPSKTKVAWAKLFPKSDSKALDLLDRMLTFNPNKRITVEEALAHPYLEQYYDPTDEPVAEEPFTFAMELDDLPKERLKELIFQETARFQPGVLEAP
Mitogen-activated protein kinase; ERK1/ERK2 (Homo sapiens), sequence (P28482 whole entry, looked up): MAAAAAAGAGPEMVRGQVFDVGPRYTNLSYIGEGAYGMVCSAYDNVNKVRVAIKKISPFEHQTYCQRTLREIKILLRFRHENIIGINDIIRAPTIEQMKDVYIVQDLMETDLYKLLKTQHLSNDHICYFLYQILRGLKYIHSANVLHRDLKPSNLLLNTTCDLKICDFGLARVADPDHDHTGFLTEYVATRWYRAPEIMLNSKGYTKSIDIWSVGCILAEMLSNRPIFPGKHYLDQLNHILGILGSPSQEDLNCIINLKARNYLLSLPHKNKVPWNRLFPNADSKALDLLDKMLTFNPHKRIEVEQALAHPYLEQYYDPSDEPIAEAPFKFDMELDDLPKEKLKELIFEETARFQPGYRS
Epidermal growth factor receptor (Homo sapiens), P00533 [L858R,T790M], sequence (P00533 whole entry T790M/L858R, looked up): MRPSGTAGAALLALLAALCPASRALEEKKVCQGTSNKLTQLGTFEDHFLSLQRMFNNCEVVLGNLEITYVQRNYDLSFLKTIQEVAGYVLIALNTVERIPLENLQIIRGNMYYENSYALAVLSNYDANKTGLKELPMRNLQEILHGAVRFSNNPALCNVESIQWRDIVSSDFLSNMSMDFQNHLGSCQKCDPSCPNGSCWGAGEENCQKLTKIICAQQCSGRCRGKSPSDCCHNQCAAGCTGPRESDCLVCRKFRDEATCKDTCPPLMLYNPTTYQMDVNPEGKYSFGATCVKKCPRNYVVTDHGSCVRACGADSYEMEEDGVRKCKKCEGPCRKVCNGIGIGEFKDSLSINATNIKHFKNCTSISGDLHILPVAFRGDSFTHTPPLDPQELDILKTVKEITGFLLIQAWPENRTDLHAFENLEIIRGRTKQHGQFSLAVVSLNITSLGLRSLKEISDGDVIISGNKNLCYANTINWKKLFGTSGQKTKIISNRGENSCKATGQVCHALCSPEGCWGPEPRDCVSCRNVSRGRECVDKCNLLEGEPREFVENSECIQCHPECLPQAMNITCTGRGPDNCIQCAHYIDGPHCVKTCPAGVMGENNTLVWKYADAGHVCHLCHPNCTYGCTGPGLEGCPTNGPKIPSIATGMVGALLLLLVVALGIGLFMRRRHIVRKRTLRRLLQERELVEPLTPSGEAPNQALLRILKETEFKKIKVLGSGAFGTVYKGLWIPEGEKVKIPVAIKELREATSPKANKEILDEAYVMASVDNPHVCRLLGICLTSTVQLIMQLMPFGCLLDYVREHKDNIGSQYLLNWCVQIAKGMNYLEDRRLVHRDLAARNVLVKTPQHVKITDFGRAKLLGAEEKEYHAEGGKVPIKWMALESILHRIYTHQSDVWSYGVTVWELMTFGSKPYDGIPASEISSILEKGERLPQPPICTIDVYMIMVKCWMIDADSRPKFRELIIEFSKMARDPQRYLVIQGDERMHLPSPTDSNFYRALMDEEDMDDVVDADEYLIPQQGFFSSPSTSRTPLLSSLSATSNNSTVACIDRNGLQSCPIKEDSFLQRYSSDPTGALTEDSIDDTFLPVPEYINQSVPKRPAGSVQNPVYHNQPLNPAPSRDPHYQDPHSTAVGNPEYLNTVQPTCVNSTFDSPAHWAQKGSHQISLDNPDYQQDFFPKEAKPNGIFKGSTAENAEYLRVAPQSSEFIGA
Epidermal growth factor receptor (Homo sapiens), P00533 [UNDEFINED MUTATION], sequence (P00533 whole entry, looked up, stated change not applied): as the sequence (P00533 whole entry) above

SMILES | IC50 [1] [nM] | inhibition [2] [%] | Activity (NCI-H1975 [3]) [%] | inhibition [4] [%] | inhibition [5] | IC50 (NCI-H1975 [6]) [nM] | inhibition [7] [%] | IC50 [8] [nM] | inhibition [9] [%] | inhibition [10] [%] | Activity (NCI-H1975 [11]) [%] | IC50 [12] [nM] | IC50 [13] [nM] | Activity (HCC827 [14]) [%] | IC50 [15] [nM] | inhibition [16] | IC50 [17] [nM] | inhibition [18] [%] | inhibition [19] | inhibition [25] | other results
C=CC(=O)Nc1cccc(Oc2nc(Nc3ccc(N4CCN(C)CC4)c([N+](=O)[O-])c3)nc3[nH]ccc23)c1 | 10 | 23 | 13.11 | 19 | inactive | 3100 | 5.8 | 829 | 3.7 | 91 | 72.08 | 0.39 | 7540 | 1.4 | 111 | Active | 7.3 | 49 | Active | Active | IC50 [20]: 1.2 nM; inhibition [21]: Active; inhibition [22]: Active; inhibition [23]: 37%; inhibition [24]: inactive; IC50 [26]: > 10000 nM
C=CC(=O)Nc1cccc(Oc2nc(Nc3ccc(N4CCN(C)CC4)c(N)c3)nc3[nH]ccc23)c1 | 2 | 63 | 19.24 | 40 | inactive | 3840 | 8 | 119 | 16 | 96 | 69.17 | 0.21 | 22700 | 2.1 | 22 | Active | 2.2 | 85 | Active | Active | Selectivity Index [27]: 493; IC50 [20]: 0.76 nM; selectivity ratio at 48 h [28]: 2; inhibition [21]: Active; inhibition [22]: Active; inhibition [23]: 63%; Ratio IC50 (HCC827 [29]): 2; inhibition [24]: inactive; IC50 [26]: > 10000 nM
C=CC(=O)Nc1cccc(Oc2nc(Nc3ccc(N4CCN(C)CC4)c(F)c3)nc3[nH]ccc23)c1 [ABIVERTINIB] |  |  | 18.87 |  |  |  |  |  |  |  |  |  |  |  |  |  |  |  |  | Active | 
